“And” between values parts separate entries of the source, which are not always exact repeats. Equal values may be shown once.
Key:
HCT116p53+/+ cell = assay: MTT cell proliferation at single concentration; type: cell-based, human
Description: Cell proliferation was assessed by a MTT assay. Cancer cells were seeded in 96-well microtitre plates and, after overnight attachment, treated with GSTO1 inhibitors. After 72 h, MTT solution (3 mg ml^−1; 20 μl) was added to each well and cells were incubated for 3 h at 37 °C. After incubation, media from each well was removed and the dark blue formazan crystals formed by live cells were dissolved in DMSO (150 μl per well). The absorbance intensity was measured at 570 nm on a microplate reader (Molecular Devices, Sunnyvale, CA, USA). Cell viability after 24 h treatment was assessed using ApoTox-Glo triplex assay (Promega) according to the manufacturer's protocol. At least three independent dose–response experiments with each concentration tested in triplicate were performed for each cell line.

GSTO1 [1] = target: T1, GSTO1 (Homo sapiens, UniProt P78417); assay: GSTO1 substrate assay (reduction of 4-NPG); conditions: for IC50: read-out: GSTO substrate assay IC50, cluster screening tables
T1 sequence (P78417 1-241): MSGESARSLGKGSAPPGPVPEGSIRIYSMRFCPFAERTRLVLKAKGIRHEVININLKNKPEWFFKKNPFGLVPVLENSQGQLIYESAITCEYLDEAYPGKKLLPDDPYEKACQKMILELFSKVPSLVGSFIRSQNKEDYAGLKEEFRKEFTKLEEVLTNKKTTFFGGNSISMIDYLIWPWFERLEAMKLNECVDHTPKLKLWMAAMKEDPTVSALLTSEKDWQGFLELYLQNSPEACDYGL
Description: For activity screening, we adapted a GSTO1 substrate assay that relies on the quantification of the reduction of S-(4-nitrophenacyl)glutathione (4-NPG), a GSTO1-specific substrate[17], using recombinant human GSTO1 in a high-throughput screening format.
Enzyme activity was measured by monitoring the reduction of 4-NPG to 4-nitroacetophenone by GSTO1.

GSTO1 [2] = target: T1, GSTO1; assay: In-gel fluorescence competitive CMFDA binding assay, recombinant GSTO1; conditions: inhibition of CMFDA binding
Description: (§1) Primary screening of GSTO inhibitors was based on competitive inhibition of CMFDA binding to endogenous GSTO. Briefly, HCT116^p53+/+ cells (4 × 10^4 per well) were coated in a 12-well plate. […] Cells were then washed with PBS and lysed using Cell Lytic M buffer (Sigma). […] Gels were immediately scanned on a Typhoon variable mode imager (Amersham Bioscience). Quantification of fluorescent band intensity was done using Image Quant 5.2 software.

endogenous GSTO1 = target: T2, endogenous GSTO1 (Homo sapiens, UniProt P78417); assay: In-gel fluorescence competitive CMFDA binding assay, endogenous GSTO1 in HCT116; conditions: 10 µM; inhibition of CMFDA binding, HCT116
T2 sequence (P78417 1-241): T1 sequence (P78417 1-241)
Description: as §1

Structure (SMILES)	% Inhibition of HCT116p53+/+ cell proliferation at 10 µM (HCT116p53+/+ cell)	GSTO substrate assay % Inhibition at 10 µM (GSTO1 [1])	GSTO binding assay (% Inhibition at 10 µM) Recombinant (GSTO1 [2])	GSTO binding assay (% Inhibition at 10 µM) Endogenous (endogenous GSTO1)	IC50 (GSTO1 [1])
CCOC(=O)c1c(NC(=O)CCl)sc(C(=O)Nc2ccc(C)cc2C)c1C [C2-14]	6.3%	-7.0%	57.9%	58.2%	–
O=C(CCl)NNC(=O)c1ccc(Br)cc1 [C3-21]	9.9%	81.3%	58.4%	27.6%	–
CC(C)C(C#N)N1CCN(C(=O)CCl)CC1 (stereo not drawn) [C5-2]	40.2% and 61.1%	58.2%	52.5%	66.2%	559 nM
O=C(CCl)N1CCN(c2ccc(O)cc2)CC1 [C5-4]	81.9% and 84.4%	41.0%	13.5%	33.4%	–
CC1CCN(c2ccc(NC(=O)CCl)cc2)CC1 [C1-19]	79.2% and 85.4%	61.5%	38.3%	65.7%	–
N#CC(c1cccs1)N1CCN(C(=O)CCl)CC1 (stereo not drawn) [C5-11]	19.6%	5.7%	57.7%	62.9%	–
COc1cc(NC(=O)CCl)c(Cl)cc1C(=O)O [C1-10]	19.7%	81.7%	49.1%	49.7%	–
Cc1c(C#N)c(NC(=O)CCl)n(-c2ccc(F)cc2)c1C [C2-3]	49%	61.5%	37.8%	47.0%	–
CCOC(=O)c1c(NC(=O)CCl)sc2c1CCN(CC)C2 [C2-17]	85.2% and 94.5%	77.2%	51.5%	24.8%	–
NC(=O)C1CN(C(=O)CCl)c2ccccc2O1 (stereo not drawn) [C5-24]	79.8% and 87.3%	83.7%	54.9%	69.2%	4110 nM
O=C(CCl)Nc1nc2cc3c(cc2s1)OCCO3 [C2-27]	42.6% and 38.2%	85.1%	69.0%	59.6%	8670 nM
O=C(CCl)Nc1ccc(Cl)cc1[N+](=O)[O-] [C1-2]	7.4%	100.9%	54.1%	66.2%	1220 nM
COc1ccc(N2CCN(C(=O)CCl)CC2)cc1 [C5-5]	-16.3%	78.6%	44.2%	51.5%	–
Cc1sc2ncn(NC(=O)CCl)c(=O)c2c1C [C2-30]	12.0%	47.4%	50.5%	41.1%	–
O=C(CCl)NCCC12CC3CC(CC(C3)C1)C2 [C3-34]	-2.4%	78.6%	50.9%	41.7%	–
CC(=O)N1CCc2cc(NC(=O)CCl)ccc21 [C1-22]	80.8% and 86%	41.4%	25.1%	49.0%	–
COc1ccc(-c2csc(NC(=O)CCl)n2)c(O)c1 [C2-24]	22.9% and 19.2%	34.0%	82.4%	62.1%	–

From publication PMC5059489, “Mechanistic evaluation and transcriptional signature of a glutathione S-transferase omega 1 inhibitor” (Nature Communications, 2016)
